Entries after “also recorded” stand apart in the source; their conditions may differ.
What was measured:
[1] = test system: Hb9-GFP ES cells; experiment: Efficiency of motor neuron specification (Hb9-GFP+ cells); type: cell-based, mouse
[2] = test system: Hb9-GFP ES cells; settings: MNs generated in the presence of RA (Wichterle et al., 2002); cited from earlier work
[3] = test system: embryoid bodies from ES cells; experiment: Dorso-ventral progenitor marker expression in embryoid bodies; type: cell-based, mouse; settings: 1 μM HhAg1.3, absence of RA
Experimental: (§1) Immunocytochemistry on ES cell-derived MNs and EBs was performed as previously described (Wichterle et al., 2002). Antibodies against the following proteins were used in the analysis during this study: Otx2, Hoxa5, Hoxc8, Hoxc6, Hoxc9, Hoxd9, Hoxd10, Foxp1, Lhx3, Pea3, Scip, NeuN, dsRed, NF.
To determine whether motor neuron progenitors are correctly specified at 1 μM concentrations of HhAg1.3 expression pattern of a series of DV progenitor markers were examined.
The endogenous Shh signaling centers have been identified as clusters of Foxa2+ cells expressing Shh (FIG. 2D).
Immunocytochemistry on dissociated ES-MNs and cryosectioned EBs was performed as previously described (Wichterle et al., 2002). In this study, the following antibodies were used: goat anti-Meis1 (Santa Cruz Biotechnology, SCB), mouse anti-Lhx3 (Developmental Studies Hybridoma Bank, DSHB), mouse anti-Lhx1/2 (DSHB), mouse anti-Nkx2.2 (DSHB), goat anti-Hoxc6 (SCB), rabbit anti-Hoxd9 (SCB), rabbit anti-Otx2 (kindly provided by G. Corte), mouse anti-Isl1 (DSHB), mouse anti-Hoxc 8 (DSHB), mouse anti-NeuN (Chemicon), rabbit anti-dsRed (Clontech), rabbit anti-Brachyury (SCB), mouse anti-Sonic Hedgehog (DSHB), mouse anti-FoxA2 (DSHB), mouse anti-Pax7 (DSHB), mouse anti-Hb9 (DSHB), guinea pig anti-Hb9 (kindly provided by the Project ALS laboratory). […]

[4] = test system: ES-MNs; experiment: Columnar and divisional identity of ES-MNs (FoxP1, Lhx3, Lhx1 immunostaining); type: cell-based, mouse
Experimental: (§2) For immunocytochemical analysis, embryonic bodies (EBs) were dissociated using 0.05% Trypsin-EDTA on Day 6 and plated at low densities on laminin coated coverslips using ADFNB medium supplemented with 10 ng/ml Glial cell-derived neurotrophic factor (GDNF). For quantification of MN subtypes, EBs were collected on Day 6 and dissociated using 0.05 Trypsin-EDTA. Dissociated cells were plated on laminin coated coverslips using ADFNB medium (DMEM/F12, Neurobasal, 1 ml B27 50× supplement and optional 5 ng/ml of GDNF to enhance survival of MN cultures) and fixed with 4% PFA one day later.
as §1
For each experiment, 10 distinct randomized image fields were taken using a confocal microscope LSM Zeiss Meta 510. Expression of all markers used for quantifications was gated to GFP positive cells, ES cell-derived spinal MNs. Images were analyzed for the expression of the above stated markers in the context of the ES cell-derived caudal brachial MNs. Each quantification is the result of at least three independent experiments (three independent differentiation experiments). […]

[5] = test system: differentiating ES cells / ES-MNs; experiment: Rostro-caudal patterning of differentiating ES cells (Hox / positional marker immunostaining); type: cell-based, mouse
Experimental: Differentiation of cervical level motor neurons from mouse ES cells was performed as previously described (Wichterle et al., 2002). For differentiation of caudal brachial level MNs from ES cells, ES cells were grown in ES cell medium for two days, dissociated and plated into non-adherent tissue culture dishes using ADFNK medium at a density of 20,000 cells/ml. Medium is changed each day but not on Day 3 and Day 4 of differentiation (three and four days after dissociation of ES cells and plating into differentiation medium, respectively). Addition of any factors to differentiating embryonic bodies (EBs) was performed on Day 3. These included: 1 μg/ml Dickopf-1 Dkk1 (R&D Systems), FGF Receptor Inhibitor (PD173074, 100 nM final concentration), FGFb (Recombinant Human, FTF-basic, 120-17, PeproTech), rhGdf11 (R&D Systems, Cat#1958-GD). GDNF (10 ng/ml, R&D Systems) was supplemented on Day 5 of differentiation in selected cultures.
as §2, §1
For each experiment, 10 distinct randomized image fields were taken using a confocal microscope LSM Zeiss Meta 510. Expression of all markers used for quantifications was gated to GFP positive cells, ES cell-derived spinal MNs. Images were analyzed for the expression of the above stated markers in the context of the ES cell-derived caudal brachial MNs. Each quantification is the result of at least three independent experiments (three independent differentiation experiments).
All experiments were performed with HBG3 ES cell line harboring Hb9-GFP transgene (Wichterle et al., 2002) and key experiments were confirmed using a control MM13 ES cell line. Differentiation of HBG3 ES cell line under RA/Hh conditions into rostral cervical MNs was performed as previously described (Wichterle et al., 2002; Wichterle and Peljto, 2008). For production of cervical MNs, ES cells were plated at 50,000 cells/ml in ADFNK differentiation medium [Advanced D-MEM/F-12 (Invitrogen): Neurobasal medium (Invitrogen) (1:1), 10% Knockout Serum Replacement (Invitrogen), […] L-Glutamine (Invitrogen), 0.1 mM β-mercaptoethanol (Sigma), and Pen/Strep (Invitrogen)]. Medium was completely changed on days 1, 2 and of differentiation. EBs were split 1:4 on day 2 of differentiation and the medium was supplemented with 1 μM all-trans retinoic acid (RA, Sigma) and Hh agonist (0.5 μM SAG, Calbiochem or 1 μM HhAg1.3, (Frank-Kamenetsky et al., 2002)). To generate caudal brachial level MNs from ES cells under FGF/Hh conditions, ES cells were plated into non-adherent tissue culture dishes in ADFNK medium (˜20,000 cells/ml). Embryoid bodies (EBs) were split 1:4 on day 2 of differentiation and the medium was changed on days 1, 2 and 5. Selected cultures were supplemented with the following reagents: 10 nM-1 μM RA, 10 nM-1 μM Hh Agonist, 1 μg/ml recombinant mouse Dickkopf-1 (R&D Systems), 50-100 nM FGF/VEGF Receptor Tyrosine Kinase Inhibitor (PD173074, Calbiochem) (Mohammadi et al., 1998), 100-625 ng/ml recombinant human bFGF (PeproTech), 20 ng/ml recombinant human Gdf11/Bmp11 (R&D Systems), 10 ng/ml recombinant rat GDNF (R&D Systems). […]

Structure (SMILES) | Percentage of Hb9-GFP+ cells with increasing Hh agonist ([1]; 10 nM, 50 nM, 100 nM, 1 μM on day 2, EBs dissociated day 7) | Motor neuron generation at high HhAg1.3 concentrations ([1]; ADFNK medium, >500 nM) | GFP positive MNs, % of all cells ([1]; ADFNK medium, absence or low concentrations of HhAg1.3 (<100 nM) added Day 2, Day 6) | HhAg1.3 concentration that efficiently induces cervical MNs [2] [µM] | Expression of Nkx2.2 and Foxa2 (Hnf3β) [3] | Expression of Pax7, Pax6 and Olig2 [3] | FoxP1+ ES-MNs expressing Lhx1 ([4]; RA (1 μM) on day 5 of differentiation, analysed day 7) [%] | Lhx1+ BrdU- ES-MNs ([4]; RA on day 5, BrdU from day 5 onwards, dissociated day 6) [%] | Hoxc8 expression in ES-MNs, loss after RA ([5]; 10 nM RA on day 3 of differentiation, two independent experiments) [%] | Rostro-caudal positional marker expression / segmental identity ([5]; Example 1, EBs supplemented on Day 3, markers examined two to four days later) | Rostro-caudal identity of MNs after RA ([5]; Example 2, 10 nM-1 μM on day 3, stained day 7) | Rostro-caudal identity (Hoxc8+ ES-MNs) after late RA ([5]; RA on day 4 or 5 of differentiation)
CNC1CCC(N(Cc2cccc(-c3ccncc3)c2)C(=O)c2sc3ccccc3c2Cl)CC1 (stereo not drawn) [HhAg1.3] | does not significantly change the percentage of Hb9-GFP^+ cells | failure to generate motor neurons | 8-10% | 0.5 to 2 | most cells within embryoid bodies expressed the ventral-most markers | not detected |  |  |  |  |  | 
CC1=C(/C=C/C(C)=C/C=C/C(C)=C/C(=O)O)C(C)(C)CCC1 [RA, all-trans retinoic acid, reference compound] |  |  |  |  |  |  | 15 | ~10 | ~10 | induced rostral cervical identity characterized by Hoxa5 expression | specification of Hoxa5^+ rostral cervical MNs; also recorded: generation of Hoxa5^+ cervical MNs lacking expression of more posterior Hox genes | did not change the rostro-caudal positional identity; also recorded: does not result in significant changes in the numbers of Hoxc8^+ ES-MNs
